# “And” between values parts separate entries of the source, which are not always exact repeats. Equal entries are not always repeated. Where two headings read alike, the source gives them in different places.
# Key:
# [1] = test system: 80S14 (p21-deficient) cells; experiment: Cytotoxicity assay using isogenic cell lines: IC50 in 80S14 (p21-deficient) cells, SRB; format: cell-based, human; conditions: Homo sapiens, 120 h, SRB
# Outline: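 IC50 is the concentration halving proliferation relative to untreated controls, read from SRB absorbance (560 nm) after TCA fixation. Test agent dilutions (5 pM–50 μM or 170 pg/ml–10 μg/ml) were left on p21-deficient 80S14 cells (12,000/well, pre-incubated overnight) for 5 days at 37 °C.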
# LoVo Colon cell line = experiment: Cytotoxicity assay using LoVo colon cell line, SRB; format: cell-based; conditions: Homo sapiens, 96 h, 4 days incubation, SRB, read-out: Inhibition of LoVo
# Outline: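 Growth inhibition read by sulforhodamine B after 4-day compound exposure at 37 °C. Colon LoVo cells plated at 4000 per well in RPMI/10% FBS a day earlier; doses ranged 5 pM-20 μM or 170 pg/ml-10 μg/ml. IC50 is the concentration halving proliferation versus untreated wells.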
# [2] = 80S14 (p21-deficient) cells, 5 days, class symbols, read-out: IC50 for 80S14
SMILES,"IC50 [1, 2]",IC50 (LoVo Colon cell line; Cellular activity in LoVo cell),melting point,"IC50 ([1]; 80S14 p21-deficient cells, 5 days incubation, read-out: IC50 for 80SI4)",IC50 (LoVo Colon cell line; LoVo colon cells)
"O=C(c1cccs1)c1cnn2c(-c3cccc(-c4cc[nH]n4)c3)ccnc12 [Example 514, {7-[3-(1H-Pyrazol-3-yl)phenyl]pyrazolo[1,5-a]pyrimidin-3-yl}(thien-2-yl)methanone]",< 1000 nM,100 to 1000 nM,129 °C,–,–
"O=C(Nc1cccc(-c2ccnc3c(C(=O)c4cccs4)cnn23)c1)c1ccccc1F [Example 358, 2-Fluoro-N-{3-[3-(thien-2-ylcarbonyl)pyrazolo[1,5-a]pyrimidin-7-yl]phenyl}benzamide]",< 1000 nM,< 100 nM,190 to 191 °C,–,–
"O=C(c1cccs1)c1cnn2c(-c3cccc(NC(=O)C4CC4)c3)ccnc12 [Example 249, N-[3-[3-(2-Thienylcarbonyl)pyrazolo[1,5-a]pyrimidin-7-yl]phenyl}-cyclopropanecarboxamide]",< 1000 nM,–,192 to 194 °C,–,–
"O=C(c1ccco1)c1cnn2c(-c3cccc(-n4cccc4)c3)ccnc12 [Example 269, 2-Furanyl[7-[3-(1H-pyrrol-1-yl)phenyl]pyrazolo[1,5-a]pyrimidin-3-yl]-methanone]",1000 to 10000 nM,–,204 to 206 °C,–,–
"O=C(c1cccs1)c1cnn2c(Cl)ccnc12 [Example 390, (7-Chloropyrazolo[1,5-a]pyrimidin-3-yl)(thien-2-yl)methanone]",1000 to 10000 nM,1000 to 20000 nM,148 to 150 °C,–,–
"O=C(Nc1cccc(-c2ccnc3c(C(=O)c4cccs4)cnn23)c1)OCCCN1CCS(=O)(=O)CC1 [Example 420, 3-(1,1-Dioxidothiomorpholin-4-yl)propyl 3-[3-(thien-2-ylcarbonyl)pyrazolo[1,5-a]pyrimidin-7-yl]phenylcarbamate]",< 1000 nM,100 to 1000 nM,148 to 159 °C,–,–
"O=C(c1cccs1)c1cnn2c(-c3cccs3)ccnc12 [Example 224, 2-Thienyl[7-(2-thienyl)pyrazolo[1,5-a]-pyrimidin-3-yl}-methanone]",1000 to 10000 nM,–,193 to 195 °C,–,–
"CC(C)CCNc1cccc(-c2ccnc3c(C(=O)c4cccs4)cnn23)c1 [Example 350, {7-[3-(Isopentylamino)phenyl]pyrazolo[1,5-a]pyrimidin-3-yl}(thien-2-yl)methanone]",< 1000 nM,< 100 nM,75 to 77 °C,–,–
"O=C(Nc1cccc(-c2ccnc3c(C(=O)c4cccs4)cnn23)c1)c1ccncc1 [Example 291, N-{3-[3-(2-Thienylcarbonyl)pyrazolo[1,5-a]pyrimidin-7-yl]phenyl}isonicotinamide]",< 1000 nM,< 100 nM,212 to 215 °C,–,–
"O=C(c1cccs1)c1cnn2c(-c3cccc(-c4ccn(CCN5CCCCC5)n4)c3)ccnc12 [Example 519, (7-{3-[1-(2-piperidin-1-ylethyl)-1H-pyrazol-3-yl]phenyl}pyrazolo[1,5-a]pyrimidin-3-yl)(thien-2-yl)methanone]",1000 to 10000 nM,100 to 1000 nM,62 °C,–,–
"O=C(c1ccco1)c1cnn2c(-c3cccc(NC(=O)C4CC4)c3)ccnc12 [Example 235, N-[3-[3-(2-Furanylcarbonyl)-pyrazolo[1,5-a]pyrimidin-7-yl]phenyl}-cyclopropanecarboxamide]",< 1000 nM,–,227 to 230 °C,–,–
"Cc1cn(-c2cccc(-c3ccnc4c(C(=O)c5cccs5)cnn34)c2)cn1 [Example 247, [7-[3-(4-Methyl-1H-imidazol-1-yl)phenyl]-pyrazolo[1,5-a]pyrimidin-3-yl]-2-thienyl-methanone]",1000 to 10000 nM,100 to 1000 nM,232 to 234 °C,–,–
"Nc1cccc(-c2ccnc3c(C(=O)c4cccs4)cnn23)c1 [Example 262, [7-(3-Aminophenyl)pyrazolo[1,5-a]pyrimidin-3-yl]-2-thienyl-methanone]",10000 to 50000 nM,–,183 to 184 °C and 183 to 185 °C,–,–
"CC(C)CC(=O)Nc1cccc(-c2ccnc3c(-c4cccc(N)c4)cnn23)c1 [Example 464, N-{3-[3-(3-Aminophenyl)pyrazolo[1,5-a]pyrimidin-7-yl]phenyl}-3-methylbutanamide]",10000 to 50000 nM,1000 to 20000 nM,173 to 175 °C,–,–
"COc1ccccc1/C=C/CNc1cccc(-c2ccnc3c(C(=O)c4cccs4)cnn23)c1 [Example 395, [7-(3-{[(2E)-3-(2-Methoxyphenyl)prop-2-enyl]amino}phenyl)pyrazolo[1,5-a]pyrimidin-3-yl](thien-2-yl)methanone]",10000 to 50000 nM,1000 to 20000 nM,128 to 131 °C,–,–
"CC(C)NC(=N)Nc1cccc(-c2ccnc3c(C(=O)c4cccs4)cnn23)c1 [Example 411, N-Isopropyl-N′-{3-[3-(thien-2-ylcarbonyl)pyrazolo[1,5-a]pyrimidin-7-yl]phenyl}guanidine]",10000 to 50000 nM,–,> 200 °C,–,–
"CC(C)NC(=NC#N)Nc1cccc(-c2ccnc3c(C(=O)c4cccs4)cnn23)c1 [Example 414, N″-Cyano-N-isopropyl-N′-{3-[3-(thien-2-ylcarbonyl)pyrazolo[1,5-a]pyrimidin-7-yl]phenyl}guanidine]",< 1000 nM,–,240 to 241 °C,–,–
"O=C(c1cccs1)c1cnn2c(-c3cccc(-n4ccnc4)c3)ccnc12 [Example 244, [7-[3-(1H-imidazol-1-yl)phenyl]pyrazolo-[1,5-a]pyrimidin-3-yl]-2-thienyl-methanone]",1000 to 10000 nM,–,242 to 244 °C,–,–
"O=C(c1cccs1)c1cnn2c(-c3cccc(-c4ccc(CNCCN5CCOCC5)cc4)c3)ccnc12 [Example 461, [7-(4′-{[(2-Morpholin-4-ylethyl)amino]methyl}-1,1′-biphenyl-3-yl)pyrazolo[1,5-a]pyrimidin-3-yl](thien-2-yl)methanone]",1000 to 10000 nM,100 to 1000 nM,–,–,–
"O=C(Nc1cccc(-c2ccnc3c(C(=O)c4cccs4)cnn23)c1)OCc1ccccn1 [Example 429, Pyridin-2-ylmethyl 3-[3-(thien-2-ylcarbonyl)pyrazolo[1,5-a]pyrimidin-7-yl]phenylcarbamate]",1000 to 10000 nM,100 to 1000 nM,–,–,–
"O=C(CCc1cccnc1)Nc1cccc(-c2ccnc3c(C(=O)c4cccs4)cnn23)c1 [Example 448, 3-Pyridin-3-yl-N-{3-[3-(thien-2-ylcarbonyl)pyrazolo[1,5-a]pyrimidin-7-yl]phenyl}propanamide]",10000 to 50000 nM,100 to 1000 nM,–,–,–
"O=C(c1cccs1)c1cnn2c(-c3cccc(-c4nnn(Cc5ccccn5)n4)c3)ccnc12 [Example 509, (7-{3-[2-(Pyridin-2-ylmethyl)-2H-tetraazol-5-yl]phenyl}pyrazolo[1,5-a]pyrimidin-3-yl)(thien-2-yl)methanone]",< 1000 nM,100 to 1000 nM,–,–,–
"Cc1cc(C)cc(-c2cnn3c(-c4cccc(-c5nnn(Cc6ccccn6)n5)c4)ccnc23)c1 [Example 495, 3-(3,5-Dimethylphenyl)-7-{3-[2-(pyridin-2-ylmethyl)-2H-tetrazol-5-yl]phenyl}pyrazolo[1,5-a]pyrimidine]",10000 to 50000 nM,100 to 1000 nM,–,–,–
"O=C(c1cccs1)c1cnn2c(-c3cccc(NCC=C(c4ccccc4)c4ccccc4)c3)ccnc12 [Example 399, (7-{3-[(3,3-Diphenylprop-2-enyl)amino]phenyl}pyrazolo[1,5-a]pyrimidin-3-yl)(thien-2-yl)methanone]",10000 to 50000 nM,1000 to 20000 nM,–,–,–
"CCCCNC(=O)Nc1cccc(-c2ccnc3c(C(=O)c4cccs4)cnn23)c1 [Example 8, N-butyl-N′-{3-[3-(thien-2-ylcarbonyl)pyrazolo[1,5-a]pyrimidin-7-yl]phenyl}urea]",–,–,158 to 160 °C,< 1000 nM,< 100 nM
"CC(C)(C)CC(=O)Nc1cc(-c2ccnc3c(C(=O)c4cccs4)cnn23)ccc1F [Example 355, N-{2-Fluoro-5-[3-(thien-2-ylcarbonyl)pyrazolo[1,5-a]pyrimidin-7-yl]phenyl}-3,3-dimethylbutanamide]",< 1000 nM,< 100 nM,–,–,–

# From US20060063784A1, “Method of using substituted pyrazolo [1,5-a] pyrimidines” (priority 2004, published 2006)
